Key:
spleen T cells [1] = assay: Cytokine secretion by anti-CD3/CD28-activated T cells (Cytometric Bead Array); assay type: cell-based, C57BL/6 mice; settings: 30 μM; for secretion of IL-2: 24 hours after treatment, FIG. 3; for secretion of IFN-γ / secretion of IL-17A / secretion of TNF-α: 72 hours after treatment
Experimental: To confirm the effect of compounds of the present invention on the secretion of cytokines by T cells, the following experiment was conducted.
Spleens were harvested and minced from C57BL/6 mice at 7 weeks of age, and single cells were isolated using a strainer (40 μm pore size, SPL). Red blood cells were removed using ACK (Ammonium-Chloride-Potassium) lysis buffer to isolate only leukocytes. These were then reacted with 10 v/v % CD90.2 microbeads (130-121-278, Miltenyi Biotech.) at 4° C. for 20 minutes, resulting in the isolation of spleen T cells from magnetic-based purification. The T cells were cultured in a 96-well plate at an amount of 2×10^5 cells/well. For T cell activation, each well was treated with anti-CD3/CD28 antibodies at a concentration of 1 μg/mL. Subsequently, Vehicle (DMSO) and compounds (Compound 14, Compound 19, Compound 26, Compound 31, Compound 35, Compound 40, Compound 41, Compound 56, Compound 69, Compound 75) at a concentration of 30 μM were treated in each well, and it was cultured at 37° C. in a 5% CO2 incubator. After 24 and 72 hours, the T cell culture medium was taken, and centrifugation was performed at 13,000 rpm for 10 minutes to obtain the supernatant.
To measure the concentration of cytokines present in the T cell culture medium, Mouse Th1/Th2/Th17 Cytokine CBA Kit (Cytometric Bead Array kit) 560485 from BD Science was utilized for flow cytometry analysis. The secretion levels of IL-2 at 24 hours after each drug treatment, and IFN-γ, TNF-α, and IL-17A at 72 hours were measured after each drug treatment.

spleen T cells [2] = assay: T cell proliferation inhibition (CFSE, FACS), CD3/CD28-activated spleen T cells; assay type: cell-based, C57BL/6 mice; settings: for inhibition at 10 µM / inhibition at 30 µM / inhibition at 50 µM: Mus musculus, T-cell, 72 h, read-out: Proliferation inhibition rate (%); for inhibition at 10 µM / inhibition at 30 µM / inhibition at 50 µM / Proliferation inhibition rate (%): Table 2, 3 days, relative to CD3/CD28+DMSO
Experimental: To investigate whether the compounds obtained in the Preparation Example have an inhibitory effect on T cell proliferation, the T cell proliferation was determined ex vivo using the fluorescent dye carboxyfluorescein diacetate succinimidyl ester (CFSE), which binds to intracellular molecules by covalent bonds.
Spleens were harvested and minced from C57BL/6 mice at 7 weeks of age, and then single cells were isolated using a strainer (40 μm pore size, SPL). Red blood cells were removed using ACK (Ammonium-Chloride-Potassium) lysis buffer to isolate only leukocytes. Subsequently, CD90.2 microbeads (130-121-278, Miltenyi Biotech.) were added, and subjected to react at 4° C. for 20 minutes. After that, spleen T cells were isolated using a MACS Magnetic Stand and LS column. The isolated T cells from the spleen were resuspended in 1 mL of Free media (RPMI-1640+200 U/mL penicillin+200 μg/mL streptomycin), followed by the addition of 0.3 μL of CFSE (10 mM), and reacted at 37° C. for 5 minutes. Subsequently, 10 mL of Free media was added to stop the reaction, and the cells were centrifuged to obtain the cell pellet. RPMI 1640 medium containing 10% FBS, 100 U/mL penicillin, and 100 μg/mL streptomycin was added to suspend the cells, and 2×10^5 cells per well were seeded into a 96-well plate and T cells were activated by treatment with CD3 and CD28 antibodies (each at 0.5 μg/mL).
The compound diluted in DMSO was treated in triplicate at concentrations of 10 μM, 30 μM, and 50 μM, respectively. After incubation at 37° C. with 5% CO2 for 3 days, cell proliferation levels were determined using a FACS Canto machine.
In the FACS graph of FIG. 1, the y-axis represents the quantity (number) of cells, while the x-axis represents the fluorescence level of the cells. […] This reduction in CFSE fluorescence results in a leftward shift along the x-axis in the graph. This indicates cell proliferation.
To collectively indicate the proliferation inhibition rate for the experimental results, the relative value of the proliferation amount after compound administration to the proliferation amount after CD3/CD28+DMSO administration was calculated. Subsequently, it was converted into an inhibition amount and expressed as a percentage, thereby determining the proliferation inhibition rate. Specifically, the proliferation inhibition rate was calculated as follows: […]

[3] = system: T lymphocyte cell line Jurkat E6-1; assay: Cytotoxicity experiment (CCK-8, relative cell survival); assay type: cell-based; settings: 24 hours, untreated cells = 100%
Experimental: To evaluate the cytotoxicity of the compound according to the present invention, the following experiment was conducted.
The T lymphocyte cell line Jurkat E6-1, purchased from the Korean Cell Line Bank, was cultured in RPMI-1640 medium comprising 10% FBS, 100 U/mL penicillin, and 100 μg/mL streptomycin. After culturing, the cells were harvested and centrifuged at 1,300 rpm for 5 minutes. After removal of the supernatant, the cells were resuspended in the same medium at a concentration of approximately 2.2×10^5 cells/mL, and 90 μL of the cell suspension was distributed per well into a 96-well plate (Costar 96 well cell culture plate, Corning). After treating 10 μL of each compound at different concentrations onto the respective wells of the plate, it was cultured for 24 hours at 37° C. in a 5% CO2 incubator. Subsequently, 10 μL of CCK-8 was added to each well, and it was cultured again for 2 hours at 37° C. in a 5% CO2 incubator. Absorbance was then measured at 450 nm to determine the relative cell survival rate compared to untreated cells, as shown in Table 4.
The values listed in Table 4 represent the relative cell survival rates in the groups treated with each compound at different concentrations, with the cell survival rate of untreated cells set as 100%.

| Structure (SMILES) | secretion of IL-2 (spleen T cells [1]) | secretion of IFN-γ (spleen T cells [1]) | secretion of IL-17A (spleen T cells [1]) | secretion of TNF-α (spleen T cells [1]) | inhibition at 10 µM (spleen T cells [2]; 10 μM) | inhibition at 30 µM (spleen T cells [2]; 30 μM) | inhibition at 50 µM (spleen T cells [2]; 50 μM) | Relative cell survival rate (%) ([3]; 10 μM) | Relative cell survival rate (%) ([3]; 20 μM) | Relative cell survival rate (%) ([3]; 30 μM) | Relative cell survival rate (%) ([3]; 50 μM) | Proliferation inhibition rate (%) (spleen T cells [2]; 10 μM) | Proliferation inhibition rate (%) (spleen T cells [2]; 30 μM) | Proliferation inhibition rate (%) (spleen T cells [2]; 50 μM) | cell proliferation read by FACS (FIG. 2) (spleen T cells [2]; concentrations ranging from 10 to 30 μM) |
| --- | --- | --- | --- | --- | --- | --- | --- | --- | --- | --- | --- | --- | --- | --- | --- |
| CC(C)=CCC/C(C)=C/CNC(=O)c1cccnc1N [Compound 75] | significant decrease | significant decrease | significant decrease | significant decrease | 95% | 98% | 98% | 97% | 95% | 86% | 85% | – | – | – | – |
| CCCCCCCCCCCCNC(=O)CNC(=O)c1ccccc1Cl [Compound 56] | significant decrease | significant decrease | significant decrease | significant decrease | – | – | – | 92% | 91% | 89% | 86% | 26% | 50% | 62% | – |
| CCCCCCCCNCCCNC(=O)c1nccnc1Cl [Compound 82] | – | – | – | – | 60% | 80% | 85% | 95% | 90% | 97% | 88% | – | – | – | – |
| CCCCCCCCCCCCNC(=O)c1ccccc1NC [Compound 65] | – | – | – | – | 39% | 43% | 77% | 87% | 84% | 86% | 77% | – | – | – | – |
| CCCCCCCCCCCCNC(=O)c1cccnc1Nc1cccc(C(F)(F)F)c1 [Compound 33] | – | – | – | – | 33% | 100% | 100% | 100% | 91% | 79% | 70% | – | – | – | – |
| CCCCCCCCCCCCNC(=O)c1ccncc1Cl [Compound 12] | – | – | – | – | 5% | 38% | 99% | 100% | 92% | 83% | 79% | – | – | – | – |
| CCCCCCCCCCCCNC(=O)c1cccnc1 [Compound 19] | significant decrease | significant decrease | significant decrease | significant decrease | 19% | 99% | 100% | 94% | 87% | 82% | 83% | – | – | – | – |
| CCCCCCCCCCCCNS(=O)(=O)c1c(C)cc(C)cc1C [Compound 41] | significant decrease | significant decrease | significant decrease | significant decrease | – | – | – | 85% | 83% | 82% | 80% | 80% | 100% | 100% | – |
| CCCCCCCCCCCCNC(=O)c1c(Cl)cccc1Cl [Compound 39] | – | – | – | – | 7% | 61% | 89% | 89% | 102% | 78% | 79% | – | – | – | – |
| CCCCCCCCCCCCNC(=O)c1ncccc1Br [Compound 73] | – | – | – | – | 32% | 76% | 86% | 94% | 97% | 98% | 104% | – | – | – | – |
| CCCCCCCCCCCCNC(=O)c1ccncc1N [Compound 68] | – | – | – | – | 57% | 67% | 100% | 92% | 91% | 88% | 82% | – | – | – | – |
| CCCCCCCCCCCCNC(=O)c1ccccc1Oc1ccccc1 [Compound 61] | – | – | – | – | 16% | 86% | 98% | 96% | 94% | 76% | 74% | – | – | – | – |
| CCCCCCCCCCCCNS(=O)(=O)c1c(F)cccc1F [Compound 54] | – | – | – | – | 55% | 60% | 77% | 89% | 83% | 77% | 76% | – | – | – | – |
| CCCCCCCCCCCCNC(=O)c1ccccc1-n1cccc1 [Compound 84] | – | – | – | – | 89% | 96% | 100% | 96% | 94% | 96% | 94% | – | – | – | inhibition of cell proliferation |
| CCCCCCCCCCCCNC(=O)c1ncccc1N [Compound 67] | – | – | – | – | 35% | 88% | 100% | 94% | 93% | 93% | 92% | – | – | – | – |
| CCCCCCCCCCCCNC(=O)c1cccnc1Cl [Compound 13] | – | – | – | – | 10% | 48% | 100% | 95% | 71% | 70% | 57% | – | – | – | – |
